Experimental data as given in US20220389026A1, “TETRACYCLIC COMPOUND USED AS CDC7 INHIBITOR” (Chia Tai Tianqing Pharmaceutical Group Co., Ltd., priority 2019, published 2022).
Read-outs that look alike come from different tables or passages of the source.

Tests used:
[1] = biological target: T1, CDC7/DBF4 (Homo sapiens, UniProt O00311); test: Inhibitory effect against activity of Cdc7/DBF4 kinase (ADP-Glo kit); format: biochemical; set-up: purchased Promega; conditions: 10 μM ATP, 25° C., 60 min
T1 sequence (O00311 whole entry): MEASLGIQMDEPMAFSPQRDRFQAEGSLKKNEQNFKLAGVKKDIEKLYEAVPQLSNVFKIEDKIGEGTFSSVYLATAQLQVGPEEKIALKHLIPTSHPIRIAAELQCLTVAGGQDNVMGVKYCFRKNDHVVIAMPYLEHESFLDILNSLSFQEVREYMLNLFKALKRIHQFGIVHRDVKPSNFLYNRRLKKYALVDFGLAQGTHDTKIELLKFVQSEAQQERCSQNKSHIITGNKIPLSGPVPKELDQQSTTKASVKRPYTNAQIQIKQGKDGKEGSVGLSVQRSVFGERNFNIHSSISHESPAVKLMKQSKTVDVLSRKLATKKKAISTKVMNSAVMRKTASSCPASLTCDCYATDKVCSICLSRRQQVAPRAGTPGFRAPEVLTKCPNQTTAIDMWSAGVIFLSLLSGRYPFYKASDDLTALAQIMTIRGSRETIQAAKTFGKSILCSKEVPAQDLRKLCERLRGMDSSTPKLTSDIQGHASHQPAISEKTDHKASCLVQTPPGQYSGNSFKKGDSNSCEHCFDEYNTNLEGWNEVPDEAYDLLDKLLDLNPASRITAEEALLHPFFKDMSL
T1 sequence (Q9UBU7 whole entry partner): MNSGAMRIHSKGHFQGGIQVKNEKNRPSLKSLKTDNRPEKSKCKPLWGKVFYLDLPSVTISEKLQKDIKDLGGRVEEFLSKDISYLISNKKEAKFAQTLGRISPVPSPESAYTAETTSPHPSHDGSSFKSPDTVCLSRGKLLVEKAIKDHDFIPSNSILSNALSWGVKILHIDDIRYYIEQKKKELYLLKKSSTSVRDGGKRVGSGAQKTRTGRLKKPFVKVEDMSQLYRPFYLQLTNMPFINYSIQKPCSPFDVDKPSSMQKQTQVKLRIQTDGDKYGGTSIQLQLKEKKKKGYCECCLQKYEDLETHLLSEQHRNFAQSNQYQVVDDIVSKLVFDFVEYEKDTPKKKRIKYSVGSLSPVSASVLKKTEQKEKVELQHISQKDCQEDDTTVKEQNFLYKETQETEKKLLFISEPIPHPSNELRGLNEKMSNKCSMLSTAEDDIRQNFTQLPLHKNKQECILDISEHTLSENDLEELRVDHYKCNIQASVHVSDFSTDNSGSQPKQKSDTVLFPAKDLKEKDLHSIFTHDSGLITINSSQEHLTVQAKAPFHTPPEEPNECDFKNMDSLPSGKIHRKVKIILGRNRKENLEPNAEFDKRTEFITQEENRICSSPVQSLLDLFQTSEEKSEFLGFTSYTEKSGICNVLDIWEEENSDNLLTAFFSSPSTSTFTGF
Experimental: Experimental Example 1. Detection of Inhibitory Effect of Compounds Against Activity of Cdc7/DBF4 Kinase
Cdc7/DBF4 kinase detection kit purchased from Promega; and
(§1) Nivo multi-marker analyzer (PerkinElmer).
An enzyme, a substrate, adenosine triphosphate and an inhibitor were diluted with the kinase buffer in the kit.
A test compound was serially 5-fold diluted to an 8th concentration, i.e., from 10 μM to 0.13 nM, with the DMSO concentration being 5%, and the duplicate well experiment was set up. To a microplate were added 1 μL of inhibitors of various concentration gradients, 2 μL of CDC7/DBF4 kinase (6.25 ng), 2 μL of a mixture of substrate and ATP (10 μM adenosine triphosphate, 0.2 μg/μL substrate), and the final concentration gradient of the compound was diluted from 2 μM to 0.025 nM. The reaction system was left reacting at 25° C. for 60 min. After the reaction was completed, 5 μL of ADP-Glo reagent was added to each well, and the reaction was continued at 25° C. for 40 min. After the reaction was completed, 10 μL of the kinase detection reagent was added to each well. After 30 min of reaction at 25° C., the chemiluminescence was read using a multi-marker analyzer, with an integration time of 0.5 s.
The original data were converted to inhibition rate using the equation (Sample−Min)/(Max−Min)×100%, and the IC50 value was then curve fitted using four parameters (obtained from the “log(inhibitor) vs. response-Variableslope” model in GraphPadPrism). Table 1 provides the inhibitory activity of the compounds disclosed herein against Cdc7/DBF4 kinase.

[2] = system: COLO205 cells; test: Inhibitory activity against COLO205 cell proliferation (CellTiter-Glo); format: cell-based; conditions: Homo sapiens, COLO 205, 72 h; 3 days incubation
Experimental: Experimental Example 2. Detection of Inhibitory Effect of Compounds Against Activity of Colo205 Cells
1640 medium; fetal bovine serum; penicillin/streptomycin antibiotics purchased from Wisent;
CellTiter-Glo (chemiluminescence detection reagent for cell viability) reagent purchased from Promega;
COLO205 cell line purchased from Wuhan Procell Life Science&Technology Co., Ltd; and
as §1
COLO205 cells were plated on to white 96-well plates by adding 80 μL of cell suspension (containing 3000 COLO205 cells) to each well. The cell plate was incubated in a CO2 incubator overnight.
A test compound was serially 3-fold diluted to an 8th concentration, i.e., from 2 mM to 920 nM, and the duplicate well experiment was set up. […] Another cell plate was read for signal values on the day of compound addition, and these values were used as the […] in data analysis. The chemiluminescence detection reagent for cell viability was added to this cell plate at 25 μL per well and the luminescence signals were stabilized by incubation at room temperature for 10 min. Readings were taken using a multi-marker analyzer.
The chemiluminescence detection reagent for cell viability was added to the cell plate at 25 μL per well and the luminescence signals were stabilized by incubation at room temperature for 10 min. […]

[3] = biological target: T1, CDC7/DBF4; conditions: cited from earlier work
[4] = system: colo205 cell line with high expression of Cdc7; conditions: read-out: COL0205 IC50; cited from earlier work
[5] = system: tumors in 25 PDX models; conditions: cited from earlier work
[6] = cited from earlier work

SMILES | IC50 [1] | also measured
O=c1[nH]c(C2CC3CCN2CC3)nc2c3c(oc12)-c1c[nH]nc1CCC3 (single isomer, unassigned) [Compound 1-1] | 1.49 nM | 
O=c1[nH]c(C2CC3CCN2CC3)nc2c3c(oc12)-c1c[nH]nc1CCC3 (single isomer, unassigned) [Compound 1-2] | 2.8 nM | IC50 [2]: 51.7 nM
O=c1[nH]c([C@@H]2CCCN2)nc2c3c(oc12)-c1c[nH]nc1CCC3 [Compound 2-1] | 0.95 nM | 
O=c1[nH]c([C@H]2CCCN2)nc2c3c(oc12)-c1c[nH]nc1CCC3 [Compound 2-2] | 1.41 nM | 
CN1CCC[C@H]1c1nc2c3c(oc2c(=O)[nH]1)-c1c[nH]nc1CCC3 [Compound 3-1] | 0.6 nM | 
CN1CCC[C@@H]1c1nc2c3c(oc2c(=O)[nH]1)-c1c[nH]nc1CCC3 [Compound 3-2] | 1.97 nM | 
Cc1[nH]ncc1-c1cc2nc([C@@H]3CC4CCN3CC4)[nH]c(=O)c2s1 [TAK-931] |  | IC50 [3]: 2.59 nM; IC50 [4]: 85.5 nM; inhibitory activity against tumors in PDX models [5]: excellent inhibitory activity; clearance rate in vivo [6]: high clearance rate; half-life in vivo [6]: short half-life
